Test results from US5716934A, “Eck receptor ligands” (Amgen Inc., priority 1995, dated 1998).

Columns and labels:
[1] = test system: eck receptor on CHO 19.32 cells; test: Chemical crosslinking of 125I-EBP to CHO 19.32 cells; type: binding, human
Procedure: (§1) CHO-cell derived EBP was radiolabelled with ^125 I as described below for use in crosslinking and binding studies. Five or 10 μg of EBP in 0.1M sodium phosphate (NAPO4, pH 8.0) was added to 5 mCi of dried ^125 I-Bolton-Hunter reagent (NEN, Boston, Mass.) in a final volume of 50 μl or 100 μl, and the tube was incubated at 4° C. for 1 h. The reaction was terminated by addition of 0.3 ml of 0.2M glycine in 0.1M NaPO4, followed by incubation at 4° C. for 5 min. Labeled protein was separated from unincorporated reagent by gel filtration chromatography on a 10 ml PD10 column containing Sephadex G-25M (Pharmacia) equilibrated with 0.1M NaPO4 --0.25% gelatin. Specific activity of the ^125 I-EBP ranged from 4 to 19 cpm/pg.
(§2) Crosslinking of EBP to either LIM 2405 (a cell line naturally expressing the eck receptor) or CHO 19.32 (Chinese hamster ovary cells transfected with a clone of the full length eck receptor) was carried out as follows. CHO cells were grown in suspension to a density of approximately 5×10^5 cells/ml in media. LIM2405 cells were grown in RPMI 1640 media containing 5% FCS, 1 μg/ml insulin, 1 μg/ml hydrocortisone, 10 μM thioglycerol and 2 mM L-glutamine to approximately 90% confluency in T-175 flasks and removed by scraping for use in the crosslinking studies. Cells were spun down and resuspended in PBS to give a single cell suspension. For each crosslinking reaction, 2×10^6 cells were mixed with approximately 20 ng of ^125 I-EBP in a total volume of 1 ml. This mixture was incubated at 4° C. for 1 h to allow binding of EBP to cell surface receptors before the addition of 20 μl of 10 mM disuccinimidyl suberate (DSS) as a crosslinking agent. Cells were then washed three times in binding buffer, collected by centrifugation, and the amount of radioactivity incorporated into the cell pellets was counted to assess the degree of crosslinking. The cells were then lysed by treatment with 100 ul PBS, 1 mM EDTA, 0.5% NP-40, 1 mM phenylmethylsulfonyl fluoride (PMSF, Sigma, St. Louis, Mo.) for 10 min at 4° C. […]

eck receptor = test: as above; type: binding, human; settings: untransfected cells (CHOd-)
Procedure: as §1, §2

[2] = test system: immobilized soluble extracellular domain of eck; test: Stability of eck binding activity of formulated EBP (BIAcore); type: physicochemical, human; settings: diluted into PBS to 100 μg/ml, 2 hours at 3° C., no detergent
Procedure: FIG. 7. Binding of CHO-derived EBP in various detergent formulations to immobilized eck receptor as measured by BIAcore. Purified EBP was diluted to 100 μg/ml in PBS in the presence or absence of detergent and incubated for 2 hrs. at 3° C. Protein samples were diluted to the concentrations indicated in the figure and tested for eck receptor binding.
Measuring the ability of EBP to bind to the immobilized soluble extracellular domain of eck using BIAcore, it was determined that dilute solutions of purified EBP rapidly lost the ability to bind to the eck receptor unless formulated with a protective agent such as a detergent. Recombinant CHO EBP diluted into PBS to 100 μg/ml and incubated for 2 hours at […] lost approximately 50% of its eck binding activity. […] (see FIG. 7).

CHO-EBP: recombinant EBP purified from supernatants of CHO cells transfected with the EBP gene; mainly EBP^1-150 and EBP^1-159
competition for binding and crosslinking of 125I-rEBP ([1]; 50-fold molar excess): able to compete | crosslinking to CHO 19.32 cells ([1]; CHO cells transfected with eck, DSS crosslinker): could be crosslinked | crosslinking to untransfected CHO cells (eck receptor): but not to the untransfected cells | loss of eck binding activity [2]: approximately 50%
